For 8 compounds, Kd results are on record in ChEMBL document CHEMBL3991601, “The target landscape of clinical kinase drugs” (Science, 2017).

The target in experiment [1] is T1, Delta(24)-sterol reductase (Homo sapiens, UniProt Q15392).
T1 sequence (Q15392 whole entry): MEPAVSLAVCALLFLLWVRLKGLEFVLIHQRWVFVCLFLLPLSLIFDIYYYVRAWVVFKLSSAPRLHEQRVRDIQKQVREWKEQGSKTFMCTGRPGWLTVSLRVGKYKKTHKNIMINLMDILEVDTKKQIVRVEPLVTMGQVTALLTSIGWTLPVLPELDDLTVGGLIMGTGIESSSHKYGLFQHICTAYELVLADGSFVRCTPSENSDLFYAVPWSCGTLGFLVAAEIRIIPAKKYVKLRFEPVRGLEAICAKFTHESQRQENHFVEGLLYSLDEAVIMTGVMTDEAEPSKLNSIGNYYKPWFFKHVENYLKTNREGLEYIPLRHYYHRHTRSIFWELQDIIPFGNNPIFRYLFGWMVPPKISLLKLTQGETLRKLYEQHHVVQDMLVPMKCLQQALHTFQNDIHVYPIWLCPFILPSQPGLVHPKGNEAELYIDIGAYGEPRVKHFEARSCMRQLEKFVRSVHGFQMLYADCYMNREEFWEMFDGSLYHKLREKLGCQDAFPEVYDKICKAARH

Experiment [2] addresses Ephrin type-A receptor 4 (Homo sapiens, UniProt P54764).
For experiment [3], the target named is ATP-dependent RNA helicase DDX3X (Homo sapiens, UniProt O00571).
The target in experiment [4] is Mitotic checkpoint serine/threonine-protein kinase BUB1 (Homo sapiens, UniProt O43683).
The target in experiment [5] is Mitogen-activated protein kinase kinase kinase 4 (Homo sapiens, UniProt Q9Y6R4).
The target in experiment [6] is Platelet-derived growth factor receptor beta (Homo sapiens, UniProt P09619).
Platelet-derived growth factor receptor beta, sequence (P09619 whole entry): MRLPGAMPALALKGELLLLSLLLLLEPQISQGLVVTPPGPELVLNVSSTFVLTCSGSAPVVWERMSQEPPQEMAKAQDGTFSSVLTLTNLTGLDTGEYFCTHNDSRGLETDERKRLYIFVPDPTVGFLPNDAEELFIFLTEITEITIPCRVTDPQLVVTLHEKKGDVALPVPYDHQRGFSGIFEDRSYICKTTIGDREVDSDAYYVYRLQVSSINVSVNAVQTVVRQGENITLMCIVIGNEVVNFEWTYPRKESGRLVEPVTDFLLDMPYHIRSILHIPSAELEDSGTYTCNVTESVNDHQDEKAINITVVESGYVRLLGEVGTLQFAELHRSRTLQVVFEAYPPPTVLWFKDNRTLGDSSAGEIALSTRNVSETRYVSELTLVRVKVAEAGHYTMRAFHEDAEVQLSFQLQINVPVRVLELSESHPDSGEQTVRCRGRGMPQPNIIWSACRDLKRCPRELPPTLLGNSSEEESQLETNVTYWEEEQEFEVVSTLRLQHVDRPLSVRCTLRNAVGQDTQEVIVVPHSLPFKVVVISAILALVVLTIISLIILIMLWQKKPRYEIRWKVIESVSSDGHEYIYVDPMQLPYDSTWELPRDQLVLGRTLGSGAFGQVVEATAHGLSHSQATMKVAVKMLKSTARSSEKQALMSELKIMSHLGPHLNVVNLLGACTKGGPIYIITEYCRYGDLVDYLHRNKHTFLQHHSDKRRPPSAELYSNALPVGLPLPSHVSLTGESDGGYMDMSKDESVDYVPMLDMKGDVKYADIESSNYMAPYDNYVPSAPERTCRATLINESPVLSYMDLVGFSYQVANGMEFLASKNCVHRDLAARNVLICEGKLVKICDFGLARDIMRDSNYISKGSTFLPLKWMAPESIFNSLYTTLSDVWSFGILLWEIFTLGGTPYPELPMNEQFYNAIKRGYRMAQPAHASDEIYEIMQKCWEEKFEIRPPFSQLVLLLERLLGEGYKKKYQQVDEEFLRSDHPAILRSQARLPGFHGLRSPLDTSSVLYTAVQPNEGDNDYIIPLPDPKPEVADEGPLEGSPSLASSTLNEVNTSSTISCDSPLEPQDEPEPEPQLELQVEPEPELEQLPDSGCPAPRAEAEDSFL
Experiment [7] deals with Cyclin-dependent kinase 13 (Homo sapiens, UniProt Q14004).
Experiment [8] addresses T2, Ras-related protein Rab-27A (Homo sapiens, UniProt P51159).
T2 sequence (P51159 whole entry): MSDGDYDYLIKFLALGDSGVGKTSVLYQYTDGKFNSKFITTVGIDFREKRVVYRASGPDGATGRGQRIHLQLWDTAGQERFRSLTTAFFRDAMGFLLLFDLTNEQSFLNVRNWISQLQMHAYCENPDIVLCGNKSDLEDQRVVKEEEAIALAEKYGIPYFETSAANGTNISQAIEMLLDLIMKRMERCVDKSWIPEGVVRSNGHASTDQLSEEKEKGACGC

Experiment [9] deals with Tyrosine-protein kinase JAK1 (Homo sapiens, UniProt P23458).
Tyrosine-protein kinase JAK1, sequence (P23458 whole entry): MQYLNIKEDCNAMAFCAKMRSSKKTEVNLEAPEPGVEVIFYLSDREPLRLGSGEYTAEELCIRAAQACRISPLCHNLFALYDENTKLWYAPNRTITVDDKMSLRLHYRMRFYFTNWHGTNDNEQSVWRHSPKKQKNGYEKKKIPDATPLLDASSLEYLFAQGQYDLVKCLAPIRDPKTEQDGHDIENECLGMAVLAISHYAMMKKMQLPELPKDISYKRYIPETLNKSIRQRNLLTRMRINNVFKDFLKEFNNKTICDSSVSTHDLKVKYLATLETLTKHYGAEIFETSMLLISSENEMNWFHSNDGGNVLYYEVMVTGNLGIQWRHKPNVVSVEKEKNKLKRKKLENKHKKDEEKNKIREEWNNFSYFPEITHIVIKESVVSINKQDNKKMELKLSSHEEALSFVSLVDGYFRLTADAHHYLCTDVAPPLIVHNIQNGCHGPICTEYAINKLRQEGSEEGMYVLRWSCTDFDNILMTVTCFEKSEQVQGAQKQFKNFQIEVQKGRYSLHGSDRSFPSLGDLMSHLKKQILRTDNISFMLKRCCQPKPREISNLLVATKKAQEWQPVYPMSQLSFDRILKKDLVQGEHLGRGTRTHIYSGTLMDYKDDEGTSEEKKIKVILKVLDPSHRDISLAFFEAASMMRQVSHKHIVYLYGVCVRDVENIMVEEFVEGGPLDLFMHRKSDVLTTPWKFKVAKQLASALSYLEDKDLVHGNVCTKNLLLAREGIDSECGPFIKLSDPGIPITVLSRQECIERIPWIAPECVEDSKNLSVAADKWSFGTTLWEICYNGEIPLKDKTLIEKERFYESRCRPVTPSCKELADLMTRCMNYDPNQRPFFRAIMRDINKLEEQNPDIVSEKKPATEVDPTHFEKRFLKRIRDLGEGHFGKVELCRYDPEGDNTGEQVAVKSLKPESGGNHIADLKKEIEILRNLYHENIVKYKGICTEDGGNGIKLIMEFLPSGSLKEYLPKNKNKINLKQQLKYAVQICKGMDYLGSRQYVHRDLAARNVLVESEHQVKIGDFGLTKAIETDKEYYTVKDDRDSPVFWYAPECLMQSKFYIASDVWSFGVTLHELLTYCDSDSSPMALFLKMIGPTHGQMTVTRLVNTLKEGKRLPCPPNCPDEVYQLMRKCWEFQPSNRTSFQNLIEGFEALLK
For experiment [10], the target named is T3, Serine/threonine-protein kinase D2 (Homo sapiens, UniProt Q9BZL6).
T3 sequence (Q9BZL6 whole entry): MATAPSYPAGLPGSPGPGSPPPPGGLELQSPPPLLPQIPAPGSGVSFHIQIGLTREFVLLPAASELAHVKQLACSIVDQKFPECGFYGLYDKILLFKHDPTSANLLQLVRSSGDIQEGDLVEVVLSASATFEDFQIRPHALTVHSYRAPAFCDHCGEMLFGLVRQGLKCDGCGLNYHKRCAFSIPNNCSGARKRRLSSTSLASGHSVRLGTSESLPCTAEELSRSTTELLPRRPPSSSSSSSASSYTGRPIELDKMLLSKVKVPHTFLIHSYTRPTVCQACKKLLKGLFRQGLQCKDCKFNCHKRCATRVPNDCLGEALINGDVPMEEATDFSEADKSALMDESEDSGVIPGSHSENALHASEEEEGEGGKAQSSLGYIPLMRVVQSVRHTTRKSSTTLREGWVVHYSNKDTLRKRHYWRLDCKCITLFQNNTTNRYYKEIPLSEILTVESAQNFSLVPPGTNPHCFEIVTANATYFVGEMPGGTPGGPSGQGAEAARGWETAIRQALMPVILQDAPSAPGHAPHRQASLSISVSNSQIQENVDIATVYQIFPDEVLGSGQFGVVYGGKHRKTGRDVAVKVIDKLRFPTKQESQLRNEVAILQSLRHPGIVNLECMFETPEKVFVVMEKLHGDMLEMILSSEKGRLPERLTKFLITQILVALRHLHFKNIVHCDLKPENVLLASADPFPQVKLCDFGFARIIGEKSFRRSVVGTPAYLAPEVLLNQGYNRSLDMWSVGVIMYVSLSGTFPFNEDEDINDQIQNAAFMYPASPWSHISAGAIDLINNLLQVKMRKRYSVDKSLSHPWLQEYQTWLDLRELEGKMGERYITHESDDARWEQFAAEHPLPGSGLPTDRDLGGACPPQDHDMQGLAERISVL

The target in experiment [11] is Citron Rho-interacting kinase (Homo sapiens, UniProt O14578).
Citron Rho-interacting kinase, sequence (O14578 whole entry): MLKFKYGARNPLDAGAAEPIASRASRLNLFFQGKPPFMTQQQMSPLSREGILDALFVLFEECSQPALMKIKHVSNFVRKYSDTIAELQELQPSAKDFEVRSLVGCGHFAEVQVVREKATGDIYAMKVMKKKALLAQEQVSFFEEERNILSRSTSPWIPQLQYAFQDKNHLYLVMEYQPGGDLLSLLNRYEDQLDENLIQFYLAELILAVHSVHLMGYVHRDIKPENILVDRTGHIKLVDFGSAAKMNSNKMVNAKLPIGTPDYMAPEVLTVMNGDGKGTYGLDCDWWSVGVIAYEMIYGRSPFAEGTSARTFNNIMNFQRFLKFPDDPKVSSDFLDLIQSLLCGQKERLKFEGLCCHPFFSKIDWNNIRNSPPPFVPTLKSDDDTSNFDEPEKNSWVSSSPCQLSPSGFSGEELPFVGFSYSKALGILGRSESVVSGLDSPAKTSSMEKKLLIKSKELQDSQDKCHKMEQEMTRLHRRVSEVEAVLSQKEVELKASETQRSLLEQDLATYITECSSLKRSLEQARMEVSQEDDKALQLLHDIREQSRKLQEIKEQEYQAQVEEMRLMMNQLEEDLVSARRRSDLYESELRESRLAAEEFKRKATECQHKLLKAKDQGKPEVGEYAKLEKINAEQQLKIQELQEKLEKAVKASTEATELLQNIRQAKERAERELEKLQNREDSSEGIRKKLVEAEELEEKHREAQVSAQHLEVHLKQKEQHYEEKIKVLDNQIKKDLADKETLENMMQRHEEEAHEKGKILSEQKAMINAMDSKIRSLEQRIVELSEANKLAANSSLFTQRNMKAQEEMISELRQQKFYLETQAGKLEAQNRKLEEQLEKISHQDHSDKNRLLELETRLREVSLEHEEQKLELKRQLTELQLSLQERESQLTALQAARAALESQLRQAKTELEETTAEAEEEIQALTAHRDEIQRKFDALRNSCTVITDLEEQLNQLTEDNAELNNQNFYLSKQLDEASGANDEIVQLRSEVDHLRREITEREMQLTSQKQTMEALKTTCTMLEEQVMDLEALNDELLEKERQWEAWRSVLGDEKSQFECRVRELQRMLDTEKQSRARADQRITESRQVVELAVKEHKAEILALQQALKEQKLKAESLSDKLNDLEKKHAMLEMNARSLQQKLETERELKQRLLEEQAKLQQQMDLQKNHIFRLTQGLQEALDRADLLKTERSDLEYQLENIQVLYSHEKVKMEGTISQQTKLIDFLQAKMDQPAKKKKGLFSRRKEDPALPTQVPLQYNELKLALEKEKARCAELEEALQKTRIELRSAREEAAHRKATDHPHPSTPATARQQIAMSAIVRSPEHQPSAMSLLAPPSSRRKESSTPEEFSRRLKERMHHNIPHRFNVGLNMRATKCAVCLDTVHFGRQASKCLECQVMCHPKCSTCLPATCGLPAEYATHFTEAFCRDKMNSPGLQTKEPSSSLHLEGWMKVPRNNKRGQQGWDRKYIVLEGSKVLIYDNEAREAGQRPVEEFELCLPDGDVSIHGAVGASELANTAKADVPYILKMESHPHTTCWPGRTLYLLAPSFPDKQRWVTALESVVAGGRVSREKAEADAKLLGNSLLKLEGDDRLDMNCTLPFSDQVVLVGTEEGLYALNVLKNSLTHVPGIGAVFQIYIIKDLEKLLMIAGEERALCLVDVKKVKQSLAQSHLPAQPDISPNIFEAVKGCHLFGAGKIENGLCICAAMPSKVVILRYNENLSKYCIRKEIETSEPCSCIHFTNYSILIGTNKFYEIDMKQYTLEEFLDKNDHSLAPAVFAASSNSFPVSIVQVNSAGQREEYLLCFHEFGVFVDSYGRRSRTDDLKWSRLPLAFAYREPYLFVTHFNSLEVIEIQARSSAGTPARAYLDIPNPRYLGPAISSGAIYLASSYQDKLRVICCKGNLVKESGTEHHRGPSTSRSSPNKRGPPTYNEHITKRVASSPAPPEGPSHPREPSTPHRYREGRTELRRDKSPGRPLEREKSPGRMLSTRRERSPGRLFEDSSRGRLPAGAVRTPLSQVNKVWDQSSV
Experiment [12] concerns the target DnaJ homolog subfamily A member 1 (Homo sapiens, UniProt P31689).
Experiment [13] concerns the target T4, Serine/threonine-protein kinase Nek2 (Homo sapiens, UniProt P51955).
T4 sequence (P51955 whole entry): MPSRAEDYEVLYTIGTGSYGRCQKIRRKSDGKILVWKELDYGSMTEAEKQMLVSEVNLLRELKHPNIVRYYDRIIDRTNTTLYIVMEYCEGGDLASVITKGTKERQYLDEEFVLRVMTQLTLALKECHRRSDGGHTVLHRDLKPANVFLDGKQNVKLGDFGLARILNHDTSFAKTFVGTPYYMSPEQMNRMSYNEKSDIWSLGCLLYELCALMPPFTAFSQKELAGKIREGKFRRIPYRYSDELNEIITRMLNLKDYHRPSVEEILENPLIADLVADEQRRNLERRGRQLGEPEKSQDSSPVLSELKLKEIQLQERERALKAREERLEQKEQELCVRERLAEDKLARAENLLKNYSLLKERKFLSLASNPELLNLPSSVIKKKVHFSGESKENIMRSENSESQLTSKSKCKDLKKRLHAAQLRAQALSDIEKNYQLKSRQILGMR

The target in experiment [14] is Myosin light chain kinase, smooth muscle (Homo sapiens, UniProt Q15746).

Each structure is given as a SMILES string. The source made the active and inactive calls. For most assays here, no stated cut-off is given here; in the data, actives have a measured Kd and inactives only a lower limit. Bounds are passed on as bounds.

As a reminder, the Kd is the concentration at which binding is half-saturated.

DnaJ homolog subfamily A member 1, sequence (P31689 whole entry): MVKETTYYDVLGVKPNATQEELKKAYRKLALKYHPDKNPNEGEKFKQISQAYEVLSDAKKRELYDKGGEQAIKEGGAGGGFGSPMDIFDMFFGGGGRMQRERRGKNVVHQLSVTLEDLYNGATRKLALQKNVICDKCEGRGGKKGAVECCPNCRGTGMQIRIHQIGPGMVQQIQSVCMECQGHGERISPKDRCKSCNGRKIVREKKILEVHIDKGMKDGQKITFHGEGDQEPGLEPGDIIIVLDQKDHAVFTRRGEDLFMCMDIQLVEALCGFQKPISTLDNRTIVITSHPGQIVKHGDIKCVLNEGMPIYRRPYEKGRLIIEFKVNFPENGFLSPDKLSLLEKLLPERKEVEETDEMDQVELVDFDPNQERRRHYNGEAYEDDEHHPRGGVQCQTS

`Cn1cc(-c2ccc3nnc(C(F)(F)c4ccc5ncccc5c4)n3n2)cn1` [JNJ-38877605]: the Kd in experiment [1], in [2], in [3], in [4], in [5] and in experiment [6] was > 30 µM (inactive) throughout. The Kd in experiment [7], in experiment [8], in experiment [9], in [10], in experiment [11] and in experiment [12] was > 30 µM (inactive) throughout. In addition, the Kd in experiment [13] and in experiment [14] was > 30 µM (inactive) in each case.

In the case of `Cc1cc([C@@H](C)Nc2ccccc2C(=O)O)c2nc(N3CCOCC3)cc(=O)n2c1` [AZD-6482], the Kd in experiment [1], in [2], in experiment [3], in [4], in experiment [5] and in experiment [6] was > 30 µM (inactive) each time. For the same compound, the Kd in [7], in experiment [8], in experiment [9], in [10], in experiment [11] and in experiment [12] was > 30 µM (inactive) each time. In addition, the Kd in experiment [13] and in [14] was > 30 µM (inactive) throughout.

As for `CNC(=O)c1ccc(-c2cnc3ncc(Cc4ccc5ncccc5c4)n3n2)cc1F` [CAPMATINIB], the Kd in experiment [1], in experiment [2], in experiment [3], in [4], in [5] and in experiment [6] was > 30 µM (inactive) each time. In addition, the Kd in experiment [7], in experiment [8], in experiment [9], in experiment [10], in [11] and in experiment [12] was > 30 µM (inactive) in each case. Besides, the Kd in [13] and in experiment [14] was > 30 µM (inactive) throughout.

As to `CN1CC[C@@H](c2c(O)cc(O)c3c(=O)cc(-c4ccccc4Cl)oc23)[C@@H]1CO`, the Kd in experiment [1], in experiment [2], in [3], in experiment [4], in experiment [5] and in experiment [6] was > 30 µM (inactive) throughout. The Kd in experiment [7], in experiment [8], in experiment [9], in [10], in experiment [11] and in [12] was > 30 µM (inactive) throughout. The Kd in [13] and in experiment [14] was > 30 µM (inactive) in each case.

As to `N[C@@H]1CCCN(c2c(/C=C3\SC(=O)NC3=O)cccc2-c2ccccc2)C1`, the Kd in [1], in experiment [2], in [3], in [4], in experiment [5] and in experiment [6] was > 30 µM (inactive) throughout. Also, the Kd in [7], in experiment [8], in experiment [9], in experiment [10], in experiment [11] and in experiment [12] was > 30 µM (inactive) each time. The Kd in experiment [13] and in experiment [14] was > 30 µM (inactive) throughout.

Take `CCN1CCN(Cc2ccc(-c3cc4c(N[C@H](C)c5ccccc5)ncnc4[nH]3)cc2)CC1` [AEE-788]: the Kd in experiment [1] was > 30 µM (inactive); in experiment [2], > 30 µM (inactive); in experiment [3], > 30 µM (inactive); in experiment [4] it was > 30 µM (inactive); in [5], 2.19 µM (active); in experiment [6] it was 9.38 µM (active). The Kd in [7], in experiment [8], in experiment [9], in experiment [10], in experiment [11] and in experiment [12] was > 30 µM (inactive) throughout. In addition, the Kd in experiment [13] and in experiment [14] was > 30 µM (inactive) in each case.

Consider `O=C(Nc1ccc(-c2ccnc(Nc3ccc(N4CCOCC4)cc3)n2)cc1)C1CCCN1` (configuration not stated) [XL-019], for which the Kd in experiment [1] is > 30 µM (inactive); in [2], > 30 µM (inactive); in [3], > 30 µM (inactive); in experiment [4], 0.39 µM (active); in [5] it was > 30 µM (inactive); in experiment [6], 1.12 µM (active). In addition, the Kd is > 30 µM (inactive) in [7]; > 30 µM (inactive) in [8]; > 30 µM (inactive) in experiment [9]; 66.9 µM (active) in [10]; 3.62 µM (active) in [11]; > 30 µM (inactive) in experiment [12]. The Kd in [13] and in experiment [14] was > 30 µM (inactive) each time.

Take `COc1cc2nccc(Oc3ccc(NC(=O)NC4CC4)c(Cl)c3)c2cc1C(N)=O` [LENVATINIB]: the Kd in experiment [1] is > 30 µM (inactive); in experiment [2] it was > 30 µM (inactive); in experiment [3] it was > 30 µM (inactive); in experiment [4], > 30 µM (inactive); in experiment [5], > 30 µM (inactive); in experiment [6], 0.316 µM (active). Besides, the Kd in experiment [7], in [8], in experiment [9], in experiment [10], in experiment [11] and in experiment [12] was > 30 µM (inactive) throughout. Besides, the Kd in experiment [13] and in experiment [14] was > 30 µM (inactive) each time.
